These are literature values, as cited in patent US20100292199A1 (priority 2007, published 2010).

Molecules are shown by their SMILES.

As to `C[C@]12CC[C@H]3[C@@H](CCC4=CC(=O)CC[C@@]43C)[C@@H]1CC[C@@H]2O` [Testosterone], the “solubility in ethyl alcohol” value (ethyl alcohol) is “soluble in ethyl alcohol”. Besides, the solubility in water result (water) is reported as “insoluble in water”.
